Where two headings read alike, the source gives them in different places.
Assays:
[1] = test system: mouse melanoma B16F10 cells; assay: Cytotoxic effect on melanoma cells in vitro
Protocol: (§1) IC50 values were calculated from MTT activity (Bank, U et al, 1991, Measurement of cellular activity by means of the MTT-test. Allerg Immunol 37:119-123).

[2] = test system: human breast cancer cell line MCF-7; assay: MTT cytotoxicity IC50; assay type: cell-based; conditions: calculated from MTT activity
Protocol: as §1

[3] = Injection of αTAM dissolved in DMSO or ethanol (Prior Art I); assay type: in vivo, mice
Text: In earlier work to develop a formulation of αTAM for preclinical study, the compound was first dissolved in DMSO or ethanol as has been characteristic of studies of this kind (Weber et al, 2002, Vitamin E succinate is a potent novel antineoplastic agent with high selectivity and cooperativity with tumor necrosis factor-related apoptosis-inducing ligand (Apo2 ligand) in vivo, Clin Cancer Res 8:863-69; Yu et al, 1999, Induction of apoptosis in human breast cancer cells by tocopherols and tocotrienols, Nutr Cancer 33:26-32).

Meso-2 cells = assay: IC50 against Meso-2 cells (FIG. 14A); assay type: cell-based; conditions: values only in FIG. 14A
Text: In FIG. 14A, esters and amides of the chromanol and N-chroman genera are compared. […] There is a correlation between increased potency and CLogP, where amide lipophilicity is consistently greater than that of the corresponding esters. Other factors of molecular structure also play a role.

[4] = General toxicity in mice by the Berlin Test; assay type: in vivo; conditions: 5 mg/kg in DMSO
Text: The general toxicity of liposomal preparations of αTAM was studied further in mice by the Berlin Test. Untreated mice and mice treated with empty liposomes were used as controls. […] Symptoms including spasms and heavy breathing pointed to neurotoxicity, embolie or anaphylactic reaction. Therefore, we have discontinued experiments that involved the use of non-liposomal formulations of αTAM.

[5] = test system: non-malignant cells (e.g. lymphocytes and bone marrow progenitors); assay: In vitro models of non-malignant cells; assay type: cell-based
Jurkat T cells = assay: Mitochondrial membrane potential ΔΨ, flow cytometry with JC-1 probe; assay type: cell-based
Text: FIG. 3 illustrates the effect of selected chromans on mitochondrial membrane potential ΔΨ in vitro. […] Deviations in ΔΨ were estimated by flow cytometry followed by cell staining with the polychromatic JC-1 probe.

[6] = test system: granulocyte/macrophage colony forming cells (GM-CFC); assay: GM-CFC colony formation in vitro; assay type: cell-based, Balb/c mouse; conditions: Balb/c bone marrow GM progenitors
Protocol: FIGS. 8A and 8B are comparative views illustrating the paradoxical effect of the liposomal formulation on non-specific toxicity, here to granulocyte/macrophage colony forming cells (GM-CFC). […] In the left panel, GM progenitors were isolated from Balb/c mouse bone morrow and treated with αTOS (left) or αTAM (right, black bars) at the concentrations shown, the number of colonies was counted and expressed per individual well. In the right panel, Balb/c mice were injected i.p. with the vehicle (40), empty liposomes (41) liposomal αTOS at 100 mg/kg (42), αTAM at 10 mg/kg (43), or αTAM at 25 mg/kg (44), and GM-CFC colonies in femoral bone marrow counted 48 h later (* denotes statistically significant differences with pb0.05 in comparison to control). […] This surprising result is paradoxical, and points to the importance of the formulation vehicle as a technological advance in achieving clinical trials of these compounds.

In the case of Cc1c(C)c2c(c(C)c1O)CC[C@@](C)(CCC[C@H](C)CCC[C@H](C)CCCC(C)C)O2 [αTOH], the “cytotoxic potential (order)” value [1] is reported as “No toxicity was observed”.
With Cc1c(C)c2c(c(C)c1NC(=O)/C=C\C(=O)O)CCC(C)(CCCC(C)CCCC(C)CCCC(C)C)O2 (stereo not drawn) [αTAM, α-tocopheryl maleamide] the IC50 [2] was 13.3 µM, the “outcome of one or two injections in DMSO” value ([3]; Balb/c, C57B1 or FVB/N c-neu mice) was “caused death of the animals” and the “toxicity of solution in DMSO (or ethanol)” value ([3]; non-liposomal solution) was “extremely toxic”. The “cytolytic potency versus the corresponding tocopheryl succinates” value (Meso-2 cells) was “markedly increased cytolytic potency”, the “outcome of free compound administered in DMSO” value [4] was “caused rapid death of the animals” and the “cytotoxicity to non-malignant cells” value [5] was “cytotoxic to non-malignant cells”. For the same compound, the “cytotoxic potential (order)” value [1] was “αTAM>αTOM>αTOS>>αTOH”, the tolerated dose (given in liposomal formulation) was 500 μg per 20 g mouse and the “dose feasible for human use” value (mouse, in vivo) was 1.75 g. The safe dose (mouse, in vivo) was 25 mg/kg, the “dissipating mitochondrial inner transmembrane potential” value (Jurkat T cells) was “potent in dissipating mitochondrial inner transmembrane potential” and the “toxicity to GM progenitors in vitro” value [6] was “the compound is toxic in vitro”.
For tocopheryl succinate [αTOS], the “cytotoxic potential (order)” value ([1]; B16F10 in vitro) was “αTAM>αTOM>αTOS>>αTOH”.
With Cc1c(C)c2c(c(C)c1NC(=O)CCC(=O)O)CCC(C)(CCCC(C)CCCC(C)CCCC(C)C)O2 (stereo not drawn) [αTAS, α-tocopheryl succinamide] the “dissipating mitochondrial inner transmembrane potential” value (Jurkat T cells) was “potent in dissipating mitochondrial inner transmembrane potential”.
